Values joined by “and” are separate entries in the source; they are usually repeats but may differ in a detail not shown here. Identical values can stand only once. Marks after values point to notes of the source that are not given here.
Key:
[1] = test system: Nigrostriatal-lesion-induced Rotational Behavior; experiment: Nigrostriatal-lesion-induced rotational behavior following amphetamine administration; assay type: in vivo, rats; details: for % DECREASE ROTATIONS (relative to Vehicle+Amphetamine): nigrostriatal-lesioned rats, 15 min before amphetamine SC
Protocol: Table 3, below, indicates the changes in rotational behavior in nigrostriatal-lesioned rats treated with the compound of the invention and the psychostimulant amphetamine. Drug 1 was administered 15 minutes before amphetamine, and 10 minutes post-amphetamine, the animals were placed into the rotometer for 30 or 60 minutes. “% decrease rotations” indicates the percentage decrease in total rotations relative to the Vehicle+Amphetamine group. ⋄ indicates significant difference (P≦0.05) relative to Vehicle+Amphetamine treated animals. * indicates significant difference (P+0.05) relative to Vehicle+Vehicle treated animals.
Amphetamine-induced rotational behavior. Pre-Apomorphine-screened (rotated) rats (with lesions ≧95% DA cell loss) were purchased from Charles Rivers Laboratories. Animals were given ˜4 days to acclimate prior to testing. All animals weighted 250-300 g at the beginning of the study. Animals were treated with various combinations of vehicle or the compound of the invention and amphetamine.
Vehicle or the compound of the invention was administered (p.o.) 15 minutes before amphetamine (2 mg/kg s.c.). Rotational behavior was assessed 15 minutes post-amphetamine administration and was monitored for 60 minutes using a Rotometer system from San Diego Instruments (San Diego, Calif.).
For i.p. administration, the compounds are formulated in H2O with 0.5% DMSO and given in a volume of 1 ml/kg body weight by injecting into the intraperitoneal cavity. For p.o. administration, the compounds are formulated in H2O with 0.5% DMSO and given in a volume of 2 ml/kg body weight using a 25-gauge, 1.5 inch gavage needle that is slowly inserted through the esophagus into the stomach.

[2] = test system: Amphetamine-induced Hyperlocomotion; experiment: Amphetamine-induced hyperlocomotion in the open field; assay type: in vivo, mice; details: for % DECREASE ACTIVITY REL TO VEH + AMPH / TOTAL ACTIVITY POST-AMPHETAMINE (AUC): mice, 15 min before amphetamine SC
Protocol: Drug 1 was administered 30 minutes after the animal was placed in the open field. Drug 2 was administered subcutaneously (SC) at 45 minutes after the animal was placed in the open field (15 minutes after drug 1). AUC indicates the total amount of locomotor activity after administration of drug 2. “% decrease activity” indicates the percentage decrease in total activity relative to the Vehicle+Amphetamine group. ⋄ significant difference (P<0.05) relative to Vehicle+ Amphetamine treated animals. * indicates significant difference (P ≦0.05) relative to Vehicle+Vehicle treated animals. Amphetamine- or cocaine-induced hyperactivity. Mice were placed in an open field apparatus (FlexField, San Diego Instruments, San Diego, Calif.). […] Total activity over each 5 minute bin (21 total bins) was added to establish activity curve over the 105 minute testing. For i.p. administration, the compounds are formulated in H2O with 0.5% DMSO and given in a volume of 1 ml/kg body weight by injecting into the intraperitoneal cavity. For p.o. administration, the compounds are formulated in H2O with 0.5% DMSO and given in a volume of 2 ml/kg body weight using a 25-gauge, 1.5 inch gavage needle that is slowly inserted through the esophagus into the stomach.

[3] = test system: Cocaine-induced Hyperlocomotion; experiment: Cocaine-induced hyperlocomotion in the open field; assay type: in vivo, mice; details: for % DECREASE ACTIVITY (relative to Vehicle+Cocaine) / TOTAL ACTIVITY POST-COCAINE (AUC): mice, 15 min before cocaine SC
Protocol: Drug 1 was administered 30 minutes after the animal was placed in the open field. Drug 2 was administered subcutaneously (SC) at 45 minutes after the animal was placed in the open field (15 minutes after drug 1). AUC indicates the total amount of locomotor activity after administration of drug 2. “% decrease activity” indicates the percentage decrease in total activity relative to the Vehicle+Cocaine group. ⋄ indicates significant difference (P≦0.05) relative to Vehicle+Cocaine treated animals. * indicates significant difference (P≦0.05) relative to Vehicle+Vehicle treated animals. Amphetamine- or cocaine-induced hyperactivity. Mice were placed in an open field apparatus (FlexField, San Diego Instruments, San Diego, Calif.). […] Total activity over each 5 minute bin (21 total bins) was added to establish activity curve over the 105 minute testing. For i.p. administration, the compounds are formulated in H2O with 0.5% DMSO and given in a volume of 1 ml/kg body weight by injecting into the intraperitoneal cavity. For p.o. administration, the compounds are formulated in H2O with 0.5% DMSO and given in a volume of 2 ml/kg body weight using a 25-gauge, 1.5 inch gavage needle that is slowly inserted through the esophagus into the stomach.

[4] = drug 1 at 0.1 mg/kg PO, 0.1 mg/kg

Row | SMILES | inhibition of amphetamine-induced rotational behavior (in words) ([1]; nigrostriatal-lesioned animals) | % DECREASE ROTATIONS (relative to Vehicle+Amphetamine) ([1]; drug 1 at 0.03 mg/kg PO) [%^⋄] | % DECREASE ROTATIONS (relative to Vehicle+Amphetamine) ([1]; drug 1 at 0.1 mg/kg PO) [%^⋄] | % DECREASE ROTATIONS (relative to Vehicle+Amphetamine) ([1]; drug 1 at 1 mg/kg PO) [%^⋄*] | inhibition of increased locomotion associated with psychostimulant administration (in words) ([2]; amphetamine-induced hyperactivity) | % DECREASE ACTIVITY REL TO VEH + AMPH ([2]; drug 1 at 0.01 mg/kg PO) [%*] | TOTAL ACTIVITY POST-AMPHETAMINE (AUC) ([2]; drug 1 at 0.01 mg/kg PO) | % DECREASE ACTIVITY REL TO VEH + AMPH ([2]; drug 1 at 0.03 mg/kg PO) [%^⋄] | TOTAL ACTIVITY POST-AMPHETAMINE (AUC) ([2]; drug 1 at 0.03 mg/kg PO) | % DECREASE ACTIVITY REL TO VEH + AMPH [2, 4] | TOTAL ACTIVITY POST-AMPHETAMINE (AUC) [2, 4] | inhibition of increased locomotion associated with psychostimulant administration (in words) ([3]; cocaine-induced hyperactivity) | % DECREASE ACTIVITY (relative to Vehicle+Cocaine) ([3]; drug 1 at 0.01 mg/kg PO) [%^⋄] | TOTAL ACTIVITY POST-COCAINE (AUC) ([3]; drug 1 at 0.01 mg/kg PO) | % DECREASE ACTIVITY (relative to Vehicle+Cocaine) ([3]; drug 1 at 0.03 mg/kg PO) [%*] | TOTAL ACTIVITY POST-COCAINE (AUC) ([3]; drug 1 at 0.03 mg/kg PO) | % DECREASE ACTIVITY (relative to Vehicle+Cocaine) ([3]; drug 1 at 0.1 mg/kg PO) [%^⋄] | TOTAL ACTIVITY POST-COCAINE (AUC) ([3]; drug 1 at 0.1 mg/kg PO) | % DECREASE ACTIVITY REL TO VEH + AMPH ([2]; drug 1 at 0.2 mg/kg IP) [%^⋄*] | TOTAL ACTIVITY POST-AMPHETAMINE (AUC) ([2]; drug 1 at 0.2 mg/kg IP)
1 | Cc1cccc(C(C)c2c[nH]c(=S)[nH]2)c1C (centres unmarked) [Compound of the invention, 4-(1-(2,3-dimethylphenyl)ethyl)-1H-imidazole-2(3H)-thione] | inhibit amphetamine-induced rotational behavior | 68 | 68 | 46 | effectively inhibit increased locomotion | 32 | 9093.3 ± 983.8 | 72 | 3783.3 ± 214.2 | 63%^⋄ and 72%^⋄ | 5036.0 ± 654.2 and 3759.1 ± 685.4 | effectively inhibit increased locomotion | 53 | 4904 ± 1832.1 | 31 | 7260.8 ± 1756.5 | 64 | 3754.3 ± 1281.9 | – | –
2 | O=C(CCCN1CCC(O)(c2ccc(Cl)cc2)CC1)c1ccc(F)cc1 [Haloperidol, reference compound] | – | – | – | – | – | – | – | – | – | – | – | – | – | – | – | – | – | – | 91 | 1123.16 ± 280.11
